Test results taken from patent US20250339531A1, “DUX4 POLYPEPTIDES AND NUCLEIC ACIDS FOR TREATING INFLAMMATORY AND AUTOIMMUNE CONDITIONS” (Fred Hutchinson Cancer Center, priority 2021, published 2025).
Entries after “also recorded” stand apart in the source; their conditions may differ.

How the values were obtained:
[1] = tested on: IFIH1, DDX58, cGAS and Type-1 IFN pathways; test: ISG induction by IFNβ, poly(I:C), RIG-I ligand or cGAMP, RT-qPCR in MB135-iDUX4 cells; assay type: cell-based, human; conditions: MB135iDUX4 cells ± doxycycline
Description: All myoblast experiments were conducted in immortalized MB135 or MB200 myoblast cell lines (isolated from a control or FSHD2 subject, respectively cultured in Ham's F-10 Nutrient Mix (Gibco) supplemented with 15% fetal bovine serum (Hyclone), 100 U/100 μg/ml penicillin/streptomycin (Gibco), 1 μM dexamethasone (Sigma), and 10 ng/ml recombinant human basic fibroblast growth factor (PeproTech). To differentiate the myoblasts to myotubes, media was changed to DMEM supplemented with 10 μg/ml insulin (Sigma) and 10 μg/ml transferrin (Sigma). Cell lines containing doxycycline-inducible transgenes were additionally cultured with 2 μg/mL puromycin (Sigma). Transgenes were induced with 1 μg/mL of doxycycline (Sigma) for 4 hours prior to other treatments for a total of 20 hrs. The Kitra-SRS cells (RRID:CVCL_YI69) were provided by Dr. H. Otani and Osaka University (Nakai et al., 2019) and were cultured in DMEM supplemented with 10% fetal bovine serum (Hyclone) and 100 U/100 μg/ml penicillin/streptomycin (Gibco). Biological replicates consisted of independent but parallel experiments, such as simultaneously stimulating three cell culture plates with IFNγ. Technical replicates consisted of repeat measurements of the same biological sample, such as loading the same biological sample in triplicate for analysis by RT-qPCR. […]

Pol-II = test: CUT&Tag of Pol-II occupancy; assay type: cell-based, human; conditions: MB135-iDUX4-CTD cells, IFNG ± doxycycline
Description: CUT&Tag was performed as previously described (Kaya-Okur et al., 2019) with the following modifications: MB135-iDUX4-CTD myoblasts were plated and allowed to grow to 70-80% confluence. Cells were left untreated, treated with 200 ng/ml IFNG for 16 hr, or pre-treated with 1 μg/mL doxycycline for 4 hr then had IFNG added directly to cell media for an additional 16 hr. Fresh cells were harvested and washed in PBS, crosslinked with 0.1% formaldehyde for 90 seconds, then counted and 1.25e6 cells were aliquoted per reaction tube. Drosophila S2 cells were spiked-in at a genomic ratio of 1:10. Nuclei were prepared from cells in Buffer NE1 (20 mM HEPES-KOH PH7.9, 10 mM KCl, 0.1% Triton X-100, 20% glycerol, 0.5 mM spermidine, Pierce Protease Inhibitors EDTA-free [PIA32955]) on ice for 10 min and then bound to concanavalin A-coated beads for 10 min. […]
CUT&Tag data were aligned to the GRCh38 patch 13 human genome e following the Benchtop CUT&Tag v3 protocol (Kaya-Okur et al., 2019). Subsequent to alignment we calculated 1× genome coverage normalization with read centering and read extension using deepTools' bamCoverage (Ramírez, 2016) then mapped the resulting coverage tracks to regions of interest using bedtools' map function (Aaron R. Quinlan, 2010). […]

How did the “suppression of ISG induction by innate immune stimuli (poly(I:C), short dsRNA/RIG-I ligand, cGAMP, IFNβ)” value [1] turn out when “DUX4: human DUX4 protein SEQ ID NO:3 expressed from doxycycline inducible codon altered transgene SEQ ID NO:2” was run?
Its value is “blunted the induction of these genes by each of the stimulated pathways; also recorded: substantially blunted the ISG induction to all treatments; also recorded: pathways that rely on IRFs and STATs are both blocked; also recorded: suppressed the induction of a subset of the panel of ISG genes induced by each ligand; also recorded: CXCL9 was induced by IFNβ, poly(I:C), and the RIG-I ligand but not suppressed by DUX4”.

For “longCTD: 3×FLAG tag and nls in frame with carboxyterminal 271 amino acids of DUX4 (aa154-424), SEQ ID NOS: 8-9”, which “Pol-II recruitment to ISGs” value (Pol-II) is on record?
Its value is “blocked Pol-II recruitment to ISGs without affecting occupancy at other genes; also recorded: blocks Pol-II recruitment”.
